“And” between values parts separate entries of the source, which are not always exact repeats. Equal entries are not always repeated.
Experiments:
mGluR2 [1] = target: mGluR2 (Mus musculus, UniProt Q14BI2, A548F); test: Live-cell FRET, azi-CRD (cysteine-rich domain) sensor in HEK293T cells; details: for Normalized FRET response, Mean (azi-CRD agonist DRC): maximal responses normalized to 1mM glutamate
mGluR2 [2] = target: T1, mGluR2 (Mus musculus, UniProt Q14BI2); test: Live-cell FRET, SNAP-m2 (VFT domain) inter-subunit sensor in HEK293T cells; details: for Normalized FRET response, Mean (SNAP-m2 agonist DRC): maximal responses normalized to 1mM glutamate;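 on all read-outs here: apparent FRET efficiency from whole-membrane ROIs of single cells, corrected for donor bleed-through and background, ΔFRET as treatment minus pretreatment signal, recorded at room temperature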
mGluR2 [3] = target: mGluR2 (Mus musculus, UniProt Q14BI2, INS715F); test: Live-cell FRET, azi-ECL2 (7TM domain, extracellular loop 2) sensor in HEK293T cells;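 further: Cy3/Cy5 click-labeled sensor, whole-membrane ROIs per cell, apparent FRET after bleed-through correction, ΔFRET as treatment minus pre-treatment signal, at room temperature, at least three biological replicates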
mGluR2 [4] = target: T1, mGluR2; test: Functional calcium imaging, SNAP-mGluR2 (no FLAG-tag) with chimeric G protein Gqo5 in HEK293T cells; type: cell-based; set-up: Full length mGluR2 construct with an amber codon (TAG) mutation of amino acid A548 (azi-CRD) or N-terminal SNAP-tag (SNAP-mGluR2); host or cells: HEK293T; details: for Intracellular Ca2+ response, Mean / Intracellular Ca2+ response: normalized to 1mM glutamate; for Intracellular Ca2+ response: single experiments

T1 sequence (Q14BI2 19-872): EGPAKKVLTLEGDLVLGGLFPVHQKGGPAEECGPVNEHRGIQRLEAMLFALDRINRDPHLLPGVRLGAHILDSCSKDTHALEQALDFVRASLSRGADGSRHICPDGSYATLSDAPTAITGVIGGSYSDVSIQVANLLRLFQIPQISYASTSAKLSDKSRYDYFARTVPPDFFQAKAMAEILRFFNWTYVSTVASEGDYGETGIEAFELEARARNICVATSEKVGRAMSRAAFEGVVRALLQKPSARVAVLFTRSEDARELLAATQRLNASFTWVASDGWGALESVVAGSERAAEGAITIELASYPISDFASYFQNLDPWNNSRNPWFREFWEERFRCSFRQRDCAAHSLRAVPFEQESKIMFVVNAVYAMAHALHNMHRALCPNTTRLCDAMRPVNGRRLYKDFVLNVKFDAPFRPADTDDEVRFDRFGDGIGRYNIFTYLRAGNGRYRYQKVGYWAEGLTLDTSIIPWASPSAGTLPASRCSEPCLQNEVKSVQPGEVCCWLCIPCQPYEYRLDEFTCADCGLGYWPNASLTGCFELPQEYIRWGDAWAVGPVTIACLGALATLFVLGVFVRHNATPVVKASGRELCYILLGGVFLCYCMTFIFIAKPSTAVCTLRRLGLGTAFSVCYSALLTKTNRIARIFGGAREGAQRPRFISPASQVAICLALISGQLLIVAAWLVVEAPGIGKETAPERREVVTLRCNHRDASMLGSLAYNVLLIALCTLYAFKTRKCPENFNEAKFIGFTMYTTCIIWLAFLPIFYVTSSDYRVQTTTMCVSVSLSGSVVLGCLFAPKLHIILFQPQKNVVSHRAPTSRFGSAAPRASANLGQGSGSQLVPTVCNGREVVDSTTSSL
mGluR2 (Mus musculus, UniProt Q14BI2, A548F), sequence (Q14BI2 19-872 A548F): as the sequence (Q14BI2 19-872) above, with A530F counted along it
mGluR2 (Mus musculus, UniProt Q14BI2, INS715F), sequence (Q14BI2 with tags, fused parts or gaps INS715F): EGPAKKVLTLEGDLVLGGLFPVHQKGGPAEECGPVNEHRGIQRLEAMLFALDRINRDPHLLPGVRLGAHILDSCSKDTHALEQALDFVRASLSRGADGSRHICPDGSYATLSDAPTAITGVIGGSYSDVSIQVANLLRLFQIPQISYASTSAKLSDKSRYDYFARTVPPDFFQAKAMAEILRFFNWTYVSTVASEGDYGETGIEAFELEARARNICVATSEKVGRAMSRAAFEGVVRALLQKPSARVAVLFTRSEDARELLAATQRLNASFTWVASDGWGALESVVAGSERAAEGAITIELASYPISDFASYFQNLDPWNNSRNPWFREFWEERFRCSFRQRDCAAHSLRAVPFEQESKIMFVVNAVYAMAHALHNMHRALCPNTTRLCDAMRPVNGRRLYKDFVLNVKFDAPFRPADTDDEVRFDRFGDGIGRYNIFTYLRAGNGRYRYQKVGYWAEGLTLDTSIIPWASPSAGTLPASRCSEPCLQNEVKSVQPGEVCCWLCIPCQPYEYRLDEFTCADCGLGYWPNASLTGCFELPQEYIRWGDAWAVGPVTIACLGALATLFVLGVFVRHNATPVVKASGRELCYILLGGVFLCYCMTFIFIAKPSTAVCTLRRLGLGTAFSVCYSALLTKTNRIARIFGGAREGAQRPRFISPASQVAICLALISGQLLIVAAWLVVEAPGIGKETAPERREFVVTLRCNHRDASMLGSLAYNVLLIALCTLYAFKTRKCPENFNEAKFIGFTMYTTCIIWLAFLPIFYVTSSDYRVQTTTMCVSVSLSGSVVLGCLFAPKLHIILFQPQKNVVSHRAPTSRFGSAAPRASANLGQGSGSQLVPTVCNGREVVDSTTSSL

For `N[C@@]1(C(=O)O)CO[C@H]2[C@H](C(=O)O)[C@H]21` [LY379268], the EC50 (mGluR2 [1]; Live-cell FRET titration EC50, azi-CRD, agonist alone, individual experiments) was 12.7 nM and 14.3 nM and 9.97 nM and 8.96 nM and 10.9 nM and 13.4 nM and 14.5 nM and 16 nM and 14.4 nM and 12.2 nM and 11.3 nM and 13.2 nM and 11.7 nM and 11.4 nM and 10.4 nM and 14.2 nM and 9.03 nM and 7.75 nM, the EC50 (mGluR2 [1]; Mean half-maximum effective concentration (EC50), azi-CRD sensor, orthosteric agonist alone, nM for LY379268 (footnote)) was 12.1 nM and the Hill slope (mGluR2 [1]; azi-CRD sensor, orthosteric agonist alone) was 1.36. For the same molecule, the “Live-cell FRET max response normalized to 1mM glutamate” value (from here on “Live-cell FRET max response normalized”) (mGluR2 [1]; azi-CRD sensor, LY379268, individual values (N=25)) was 1.396 and 1.075 and 1.11 and 1.161 and 1.042 (2×) and 1.039 and 1.015 and 1.054 and 0.99 and 1.034 and 0.9879 and 0.9896 and 1.016 and 1.007 and 1.046 and 1.009 (2×) and 0.9955 and 1.0569 and 1.003 and 0.9915 and 1.157 and 1.205 and 1.123, the “Mean max response (normalized max ΔFRET)” value (mGluR2 [1]; azi-CRD, agonist alone (1 mM glutamate, 100 μM DCG-IV, 20 μM LY379268, 100 μM APDC), normalized to 1 mM glutamate) was 1.06 and the “Normalized Max ΔFRET, Mean” value (mGluR2 [1]; azi-CRD, 20μM agonist, mean of cells, normalized to 1mM glutamate) was 106.212. The “Normalized FRET response, Mean (azi-CRD agonist DRC)” value (mGluR2 [1]; log[ligand] (M) -4.69897) was 1.062, the “Normalized FRET response, Mean (azi-CRD agonist DRC)” value (mGluR2 [1]; log[ligand] (M) -6) was 1.058 and the “Normalized FRET response, Mean (azi-CRD agonist DRC)” value (mGluR2 [1]; log[ligand] (M) -7.1549) was 0.9652. For the same molecule, the “Normalized FRET response, Mean (azi-CRD agonist DRC)” value (mGluR2 [1]; log[ligand] (M) -7.52288) was 0.8398, the “Normalized FRET response, Mean (azi-CRD agonist DRC)” value (mGluR2 [1]; log[ligand] (M) -8) was 0.4669 and the “Normalized FRET response, Mean (azi-CRD agonist DRC)” value (mGluR2 [1]; log[ligand] (M) -8.39794) was 0.1943. For the same molecule, the “Normalized FRET response, Mean (azi-CRD agonist DRC)” value (mGluR2 [1]; log[ligand] (M) -8.82391) was 0.06461, the “Normalized FRET response, Mean (azi-CRD agonist DRC)” value (mGluR2 [1]; log[ligand] (M) -9.52288) was 0.04231 and the “Normalized FRET response, Mean (azi-CRD agonist DRC)” value (mGluR2 [1]; log[ligand] (M) -10) was 0. For the same molecule, the Emax (mGluR2 [2]; HEK-293T, read-out: Normalized Max ΔFRET, SNAP-m2, 20μM agonist, individual cells, normalized to 1mM glutamate) was 101%, the EC50 (mGluR2 [2]; Mean half-maximum effective concentration (EC50), SNAP-m2 sensor, orthosteric agonist alone, nM for LY379268 (footnote)) was 30.6 nM and the “Mean max response (normalized max ΔFRET)” value (mGluR2 [2]; SNAP-m2 (VFT), agonist alone (1 mM glutamate, 100 μM DCG-IV, 20 μM LY379268, 100 μM APDC), normalized to 1 mM glutamate) was 1.01. For the same molecule, the “Normalized Max ΔFRET, Mean” value (mGluR2 [2]; SNAP-m2, 20μM agonist, mean of cells, normalized to 1mM glutamate) was 101.061, the Hill slope (mGluR2 [2]; SNAP-m2 sensor, orthosteric agonist alone) was “–1.12” and the “Live-cell FRET max response normalized” value (mGluR2 [2]; SNAP-m2 sensor, LY379268, individual values (N=23)) was 0.9967 and 0.9702 and 0.9948 and 1.036 and 0.962 and 0.9651 and 1.05 (3×) and 1.035 and 1.049 and 1.015 and 0.9906 and 1.057 and 1.051 and 0.9532 and 0.9752 and 0.9335 and 1.106 and 1.013 and 0.9759 and 0.9961 and 1.019. For the same molecule, the “Normalized FRET response, Mean (SNAP-m2 agonist DRC)” value (mGluR2 [2]; log[ligand] (M) -6) was -1.011, the “Normalized FRET response, Mean (SNAP-m2 agonist DRC)” value (mGluR2 [2]; log[ligand] (M) -6.69897) was -1.017 and the “Normalized FRET response, Mean (SNAP-m2 agonist DRC)” value (mGluR2 [2]; log[ligand] (M) -7.1549) was -0.7975. The “Normalized FRET response, Mean (SNAP-m2 agonist DRC)” value (mGluR2 [2]; log[ligand] (M) -7.52288) was -0.6707, the “Normalized FRET response, Mean (SNAP-m2 agonist DRC)” value (mGluR2 [2]; log[ligand] (M) -8) was -0.3677 and the “Normalized FRET response, Mean (SNAP-m2 agonist DRC)” value (mGluR2 [2]; log[ligand] (M) -8.39794) was -0.1637. For the same molecule, the “Normalized FRET response, Mean (SNAP-m2 agonist DRC)” value (mGluR2 [2]; log[ligand] (M) -8.82391) was -0.07424, the “Normalized FRET response, Mean (SNAP-m2 agonist DRC)” value (mGluR2 [2]; log[ligand] (M) -9.52288) was -0.01697 and the “Normalized FRET response, Mean (SNAP-m2 agonist DRC)” value (mGluR2 [2]; log[ligand] (M) -10) was -0.0059. For the same molecule, the “Normalized FRET response, Mean (SNAP-m2 agonist DRC)” value (mGluR2 [2]; log[ligand] (M) -10.699) was 0, the EC50 (mGluR2 [3]; EC50, live-cell FRET titration, azi-ECL2 sensor, LY379268, individual cell values (N=9)) was 6.91 nM and 29 nM and 9.62 nM and 9.94 nM and 8.57 nM and 6.02 nM and 9.91 nM and 5.72 nM and 5.97 nM and the EC50 (mGluR2 [3]; Mean half-maximum effective concentration (EC50), azi-ECL2 sensor, orthosteric agonist alone, nM for LY379268 (footnote)) was 10.2 nM. The “Mean max response (normalized max ΔFRET)” value (mGluR2 [3]; azi-ECL2, agonist alone (1 mM glutamate, 100 μM DCG-IV, 20 μM LY379268, 100 μM APDC), normalized to 1 mM glutamate) was 1.14, the “Normalized ΔFRET response, Mean (agonist DRC)” value (“Normalized ΔFRET response, Mean” for short) (mGluR2 [3]; azi-ECL2, log[agonist] (M) -4.69897, normalized to 1 mM glutamate) was 1.14 and the “Normalized ΔFRET response, Mean” value (mGluR2 [3]; azi-ECL2, log[agonist] (M) -6, normalized to 1 mM glutamate) was 1.108. The “Normalized ΔFRET response, Mean” value (mGluR2 [3]; azi-ECL2, log[agonist] (M) -7.1549, normalized to 1 mM glutamate) was 1.024, the “Normalized ΔFRET response, Mean” value (mGluR2 [3]; azi-ECL2, log[agonist] (M) -7.52288, normalized to 1 mM glutamate) was 0.9098 and the “Normalized ΔFRET response, Mean” value (mGluR2 [3]; azi-ECL2, log[agonist] (M) -8, normalized to 1 mM glutamate) was 0.6174. For the same molecule, the “Normalized ΔFRET response, Mean” value (mGluR2 [3]; azi-ECL2, log[agonist] (M) -8.39794, normalized to 1 mM glutamate) was 0.327, the “Normalized ΔFRET response, Mean” value (mGluR2 [3]; azi-ECL2, log[agonist] (M) -8.82391, normalized to 1 mM glutamate) was 0.1901 and the “Normalized ΔFRET response, Mean” value (mGluR2 [3]; azi-ECL2, log[agonist] (M) -9.52288, normalized to 1 mM glutamate) was 0.0544. The “Normalized ΔFRET response, Mean” value (mGluR2 [3]; azi-ECL2, log[agonist] (M) -10, normalized to 1 mM glutamate) was 0, the “Normalized ΔFRET response, Mean” value (mGluR2 [3]; azi-ECL2, log[agonist] (M) -10.699, normalized to 1 mM glutamate) was 0 and the “Normalized Max ΔFRET, Mean” value (mGluR2 [3]; azi-ECL2, 20μM agonist, mean of cells, normalized to 1mM glutamate) was 114.025. For the same molecule, the Hill slope (mGluR2 [3]; azi-ECL2 sensor, orthosteric agonist alone) was 1.03, the “Live-cell FRET max response normalized” value (mGluR2 [3]; azi-ECL2 sensor, LY379268, individual values (N=22)) was 0.9523 and 0.965 and 0.9976 and 1.05 and 1.063 and 1.017 and 1.16 and 1.1 and 1.538 and 1.083 and 1.3913 and 1.033 and 1.4421 and 1.297 and 1.208 and 1.454 and 1.223 and 1.042 and 0.9949 and 1.12 and 0.9608 and 0.9946 and the “Normalized Max Intracellular Ca2+ Response, individual experiments” value (mGluR2 [4]; 100 μM DCG-IV, 10 μM LY379268, 300 μM APDC, normalized to 1 mM glutamate, single replicate) was 1.134 and 1.073 and 0.9696. For the same molecule, the “Normalized Max Intracellular Ca2+ Response, mean” value (mGluR2 [4]; 1 mM Glu, 100 μM DCG-IV, 10 μM LY379268, 300 μM APDC, normalized to 1 mM glutamate) was 1.059, the “Intracellular Ca2+ response, Mean” value (mGluR2 [4]; log[agonist] (M) -5) was 1.059 and the “Intracellular Ca2+ response” value (mGluR2 [4]; log[agonist] (M) -5) was 1.059. For the same molecule, the “Intracellular Ca2+ response, Mean” value (mGluR2 [4]; log[agonist] (M) -5.30103) was 1.029, the “Intracellular Ca2+ response” value (mGluR2 [4]; log[agonist] (M) -5.30103) was 1.067 and 1.001 and 1.018 and the “Intracellular Ca2+ response, Mean” value (mGluR2 [4]; log[agonist] (M) -5.69897) was 1.028. For the same molecule, the “Intracellular Ca2+ response” value (mGluR2 [4]; log[agonist] (M) -5.69897) was 0.9461 and 1.043 and 1.094, the “Intracellular Ca2+ response, Mean” value (mGluR2 [4]; log[agonist] (M) -6) was 1.014 and the “Intracellular Ca2+ response” value (mGluR2 [4]; log[agonist] (M) -6) was 0.8943 and 1.055 and 1.093. The “Intracellular Ca2+ response, Mean” value (mGluR2 [4]; log[agonist] (M) -6.60206) was 0.8831, the “Intracellular Ca2+ response” value (mGluR2 [4]; log[agonist] (M) -6.60206) was 0.7751 and 0.9366 and 0.9375 and the “Intracellular Ca2+ response, Mean” value (mGluR2 [4]; log[agonist] (M) -7.1549) was 0.4554. For the same molecule, the “Intracellular Ca2+ response” value (mGluR2 [4]; log[agonist] (M) -7.1549) was 0.4206 and 0.5128 and 0.4328, the “Intracellular Ca2+ response, Mean” value (mGluR2 [4]; log[agonist] (M) -7.52288) was 0.1775 and the “Intracellular Ca2+ response” value (mGluR2 [4]; log[agonist] (M) -7.52288) was 0.2096 and 0.1787 and 0.1441. The “Intracellular Ca2+ response, Mean” value (mGluR2 [4]; log[agonist] (M) -8) was 0.00736, the “Intracellular Ca2+ response, Mean” value (mGluR2 [4]; log[agonist] (M) -8.39794) was 0 and the “Intracellular Ca2+ response” value (mGluR2 [4]; log[agonist] (M) -8.39794) was 0. For the same molecule, the “Intracellular Ca2+ response, Mean” value (mGluR2 [4]; log[agonist] (M) -8.82391) was 0, the “Intracellular Ca2+ response” value (mGluR2 [4]; log[agonist] (M) -8.82391) was 0 and the “Intracellular Ca2+ response, Mean” value (mGluR2 [4]; log[agonist] (M) -9.52288) was 0. For the same molecule, the “Intracellular Ca2+ response” value (mGluR2 [4]; log[agonist] (M) -9.52288) was 0, the “Intracellular Ca2+ response, Mean” value (mGluR2 [4]; log[agonist] (M) -10) was 0 and the “Intracellular Ca2+ response” value (mGluR2 [4]; log[agonist] (M) -10) was 0. For the same molecule, the EC50 (mGluR2 [4]; one value per experiment, read-out: EC50, intracellular Ca2+ response) was 84.9 nM and 98.9 nM and 71 nM.

Source: PMC9299836 (eLife, 2022)
